The target of one assay is LC3B (Homo sapiens, UniProt Q9GZQ8). The assay is described as follows: Fluorescence Polarization (FP) Assay: displacement of FITC-labeled peptide from GST-LC3B. Format: binding.
Settings: not given
The protocol:
The compounds of the present invention for regulating the autophagy-related protein LC3B were tested by Fluorescence Polarization (FP) Assay.
Fluorescence Polarization (FP) Assay Test
(Polarisation of emitted light reports the rotation of a fluorescent probe.)
Broadly, the IC50 is the concentration that inhibits the measured activity by half. `CN(C)CCNC=C1C(=O)CC(c2cccnc2Br)CC1=O` (stereo not drawn) [Compound 338, 5-(2-bromopyridin-3-yl)-2-(((2-(dimethylamino)ethyl)amino)methylene) cyclohexane-1,3-dione] showed a half-maximal inhibitory concentration (IC50) of less than 3 µM. The same measure, in the same setting: the same measure for `CN(C)CCNC=C1C(=O)CC(c2cccc(F)c2Br)CC1=O` (stereo not drawn) [Compound 350, 5-(2-bromo-3-fluorophenyl)-2-(((2-(dimethylamino)ethyl)amino)methylene) cyclohexane-1,3-dione]: less than 3 µM.

The same assay, now with this note: Fluorescence Polarization assay; GST-LC3B 180 nM, FITC-labeled peptide 18 nM, 25° C.; read-out: IC50.
On to `CN(C)c1ccc(Br)c(C2CC(=O)C(=CNCCN3CCN(CCO)CC3)C(=O)C2)c1` (stereo not drawn) [Compound 332, 5-(2-bromo-5-(dimethylamino)phenyl)-2-(((2-(4-(2-hydroxyethyl)piperazin-1-yl)ethyl)amino)methylene) cyclohexane-1,3-dione], for which the IC50 is less than 3 µM. For `NC(=O)C1C(=O)C(=CNCCN2CCN(CCO)CC2)C(=O)CC1c1ccccc1` (stereo not drawn) [Compound 333, 3-(((2-(4-(2-hydroxyethyl)piperazin-1-yl)ethyl)amino)methylene)-2,4-dioxo-6-phenylcyclohexane-1-carboxamide], the IC50 fell in the range of 15 to 100 µM. For the molecule `CC(C)(C)OC(=O)C1C(=O)C(=CNCCN2CCN(CCO)CC2)C(=O)CC1c1ccccc1` (stereo not drawn) [Compound 334, tert-butyl 3-(((2-(4-(2-hydroxyethyl)piperazin-1-yl)ethyl)amino)methylene)-2,4-dioxo-6-phenylcyclohexane-1-carboxylate], the IC50 fell in the range of 3 to 15 µM. The same measure, in the same setting: the same measure for `CCOC(=O)C1C(=O)C(=CNCCN2CCN(CCO)CC2)C(=O)CC1c1ccccc1` (stereo not drawn) [Compound 335, ethyl 3-(((2-(4-(2-hydroxyethyl)piperazin-1-yl)ethyl)amino)methylene)-2,4-dioxo-6-phenylcyclohexane-1-carboxylate]: 3 to 15 µM; for `CC1(C#N)C(=O)C(=CNCCN2CCN(CCO)CC2)C(=O)CC1c1ccccc1` (stereo not drawn) [Compound 336, 3-(((2-(4-(2-hydroxyethyl)piperazin-1-yl)ethyl)amino)methylene)-1-methyl-2,4-dioxo-6-phenylcyclohexane-1-carbonitrile]: 3 to 15 µM.

As for `COc1cccc(C2CC(=O)C(=CNCCN(C)C)C(=O)C2)c1` (stereo not drawn) [Compound 337, 2-(((2-(dimethylamino)ethyl)amino)methylene)-5-(3-methoxyphenyl) cyclohexane-1,3-dione], the IC50 is less than 3 µM. The same measure, in the same setting: under `CN(C)CCNC=C1C(=O)CC(c2ccc([N+](=O)[O-])cc2)CC1=O` (stereo not drawn) [Compound 340, 2-(((2-(dimethylamino)ethyl)amino)methylene)-5-(4-nitrophenyl) cyclohexane-1,3-dione] stands less than 3 µM. For the molecule `CN(C)CCNC=C1C(=O)CC(C(=O)Nc2ccccc2)CC1=O` (stereo not drawn) [Compound 343, 4-(((2-(dimethylamino)ethyl)amino)methylene)-3,5-dioxo-N-phenylcyclohexane-1-carboxamide], the IC50 fell in the range of 3 to 15 µM. Turning to `CN(C)CCNC=C1C(=O)CC(c2ccccc2N2CCOCC2)CC1=O` (stereo not drawn) [Compound 344], the IC50 lay in the range of 3 to 15 µM. Same read-out and setting: the same measure for `CC(=O)Nc1ccccc1C1CC(=O)C(=CNCCN(C)C)C(=O)C1` (stereo not drawn) [Compound 345, N-(2-(4-(((2-(dimethylamino)ethyl)amino)methylene)-3,5-dioxocyclohexyl)phenyl) acetamide]: 3 to 15 µM; for `CN(C)CCNC=C1C(=O)CC(c2cc(F)ccc2Br)CC1=O` (stereo not drawn) [Compound 349, 5-(2-bromo-5-fluorophenyl)-2-(((2-(dimethylamino)ethyl)amino)methylene) cyclohexane-1,3-dione]: less than 3 µM. The same measure, in the same setting: the same measure for `CN(C)CCNC=C1C(=O)CC(c2cc(F)ccc2Cl)CC1=O` (stereo not drawn) [Compound 351, 5-(2-chloro-5-fluorophenyl)-2-(((2-(dimethylamino)ethyl)amino)methylene) cyclohexane-1,3-dione]: less than 3 µM; for `O=C1CCCCC(=O)C1=CNCCN1CCN(CCO)CC1` [Compound 352, 2-(((2-(4-(2-hydroxyethyl)piperazin-1-yl)ethyl)amino)methylene) cycloheptane-1,3-dione]: 100 to 1000 µM. As for `O=C1CC(c2cccc3[nH]cc(-c4ccccc4)c23)CC(=O)C1=CNCCN1CCN(CCO)CC1` (stereo not drawn) [Compound 353, 2-(((2-(4-(2-hydroxyethyl)piperazin-1-yl)ethyl)amino)methylene)-5-(3-phenyl-1H-indol-4-yl)cyclohexane-1,3-dione], the IC50 is less than 3 µM. The same measure, in the same setting: the same measure for `O=C1Nc2cc(C(F)(F)F)ccc2C(=O)/C1=C\NCCN1CCN(CCO)CC1` [Compound 354, 3-(((2-(4-(2-hydroxyethyl)piperazin-1-yl)ethyl)amino)methylene)-7-(trifluoromethyl) quinoline-2,4(1H,3H)-dione]: less than 3 µM.

As for `O=C1CC(c2ccccc2)CC(=O)C1=CNc1cccc2c1CNC2=O` (stereo not drawn) [Compound 355, 2-(((1-oxoisoindolin-4-yl)amino)methylene)-5-phenylcyclohexane-1,3-dione], the half-maximal inhibitory concentration (IC50) is less than 3 µM. For the molecule `CN(C)CCNC=C1C(=O)CC(c2c(Cl)cccc2C(F)(F)F)CC1=O` (stereo not drawn) [Compound 358, 5-(2-chloro-6-(trifluoromethyl)phenyl)-2-(((2-(dimethylamino)ethyl)amino)methylene) cyclohexane-1,3-dione], the 50% inhibitory concentration (IC50) is less than 3 µM. The same measure, in the same setting: under `CN(C)CCNC=C1C(=O)CC(C(=O)NCc2ccccc2)CC1=O` (stereo not drawn) [Compound 359, N-benzyl-4-(((2-(dimethylamino)ethyl)amino)methylene)-3,5-dioxocyclohexane-1-carboxamide] stands 15 to 100 µM; under `CN(C)CCNC=C1C(=O)CC(C(=O)Nc2ccc(Br)cc2)CC1=O` (stereo not drawn) [Compound 360, N-(4-bromophenyl)-4-(((2-(dimethylamino)ethyl)amino)methylene)-3,5-dioxocyclohexane-1-carboxamide], 3 to 15 µM.

As to `CN(C)CCNC=C1C(=O)CC(c2c(F)cccc2Cl)CC1=O` (stereo not drawn) [Compound 361, 5-(2-chloro-6-fluorophenyl)-2-(((2-(dimethylamino)ethyl)amino)methylene) cyclohexane-1,3-dione], the half-maximal inhibitory concentration (IC50) was less than 3 µM. The same measure, in the same setting: under `CN(C)CCNC=C1C(=O)CC(c2cc(C(F)(F)F)ccc2Br)CC1=O` (stereo not drawn) [Compound 362, 5-(2-bromo-5-(trifluoromethyl)phenyl)-2-(((2-(dimethylamino)ethyl)amino)methylene) cyclohexane-1,3-dione] stands less than 3 µM; under `CN(C)CCNC=C1C(=O)CC(C(=O)Nc2ccc(Cl)cc2)CC1=O` (stereo not drawn) [Compound 363, N-(4-chlorophenyl)-4-(((2-(dimethylamino)ethyl)amino)methylene)-3,5-dioxocyclohexane-1-carboxamide], 3 to 15 µM; under `CN(C)CCNC=C1C(=O)CC(c2cc(Cl)cc(Cl)c2Cl)CC1=O` (stereo not drawn) [Compound 364, 2-(((2-(dimethylamino)ethyl)amino)methylene)-5-(2,3,5-trichlorophenyl) cyclohexane-1,3-dione], less than 3 µM.

As for `CN(C)CCNC=C1C(=O)CC(c2ccc(Br)s2)CC1=O` (stereo not drawn) [Compound 366, 5-(5-bromothiophen-2-yl)-2-(((2-(dimethylamino)ethyl)amino)methylene) cyclohexane-1,3-dione], the IC50 was less than 3 µM.

For the molecule `CN(C)CCNC=C1C(=O)CC(c2ccc(-c3ccccc3)s2)CC1=O` (stereo not drawn) [Compound 367, 2-(((2-(dimethylamino)ethyl)amino)methylene)-5-(5-phenylthiophen-2-yl)cyclohexane-1,3-dione], the 50% inhibitory concentration (IC50) is less than 3 µM. Turning to `CN(C)CCNC=C1C(=O)CC(c2ccc(F)cc2Cl)CC1=O` (stereo not drawn) [Compound 370, 5-(2-chloro-4-fluorophenyl)-2-(((2-(dimethylamino)ethyl)amino)methylene) cyclohexane-1,3-dione], the IC50 is less than 3 µM.

Consider `CN(C)CCNC=C1C(=O)CC(c2cscc2-c2ccccc2)CC1=O` (stereo not drawn) [Compound 371, 2-(((2-(dimethylamino)ethyl)amino)methylene)-5-(4-phenylthiophen-3-yl)cyclohexane-1,3-dione], for which the IC50 was less than 3 µM. Still for that read-out and setting: under `Cc1ccc(NC(=O)CN2CCN(CCNC=C3C(=O)CC(c4ccccc4Br)CC3=O)CC2)cc1` (stereo not drawn) [Compound 372, 2-(4-(2-(((4-(2-bromophenyl)-2,6-dioxocyclo-hexylidene)methyl)amino)ethyl)piperazin-1-yl)-N-(p-tolyl) acetainide] stands less than 3 µM. Still for that read-out and setting: the same measure for `CNc1cccc(C2CC(=O)C(=CNCCN3CCN(CCO)CC3)C(=O)C2)c1Br` (stereo not drawn) [Compound 374, 5-(2-bromo-3-(methylamino)phenyl)-2-(((2-(4-(2-hydroxyethyl)piperazin-1-yl)ethyl)amino)methylene) cyclohexane-1,3-dione]: less than 3 µM; for `O=C1CC(c2c[nH]c3cccc(Br)c23)CC(=O)C1=CNCCN1CCN(CCO)CC1` (stereo not drawn) [Compound 375, 5-(4-bromo-1H-indol-3-yl)-2-(((2-(4-(2-hydroxyethyl)piperazin-1-yl)ethyl)amino)methylene) cyclohexane-1,3-dione]: less than 3 µM; for `CN(C)CCNC=C1C(=O)CC(c2cc(C(F)(F)F)ccc2F)CC1=O` (stereo not drawn) [Compound 376, 2-(((2-(dimethylamino)ethyl)amino)methylene)-5-(2-fluoro-5-(trifluoromethyl)phenyl) cyclohexane-1,3-dione]: less than 3 µM. Same read-out and setting: under `CN(C)CCNC=C1C(=O)CC(c2c(C(F)(F)F)ccc(Cl)c2Cl)CC1=O` (stereo not drawn) [Compound 377, 5-(2,3-dichloro-6-(trifluoromethyl)phenyl)-2-(((2-(dimethylamino)ethyl)amino)methylene) cyclohexane-1,3-dione] stands less than 3 µM; under `CN(C)CCNC=C1C(=O)CC(c2c(C(F)(F)F)ccc(Cl)c2F)CC1=O` (stereo not drawn) [Compound 378, 5-(3-chloro-2-fluoro-6-(trifluoromethyl)phenyl)-2-(((2-(dimethylamino)ethyl)amino)methylene) cyclohexane-1,3-dione], less than 3 µM; under `COc1cc(Br)c(C2CC(=O)C(=CNCCN(C)C)C(=O)C2)cc1OC` (stereo not drawn) [Compound 379, 5-(2-bromo-4,5-dimethoxyphenyl)-2-(((2-(dimethylamino)ethyl)amino)methylene) cyclohexane-1,3-dione], less than 3 µM.
